Test results from patent publication EP0998924A1, “ANTITUMOR AGENTS” (MEIJI MILK PRODUCTS COMPANY LIMITED, priority 1997, dated 1999).

Test system: topoisomerase II
Assay: Measurement of topoisomerase II inhibitory activity (kDNA decatenation, agarose gel electrophoresis and densitometry)
Format: biochemical, rat
Method: Test Example 1 Measurement of Topoisomerase II Inhibitory Activity
(A) Extraction of crude topoisomerase II from rat infant brain nuclei (IBN)
IBN (11.98 mg/ml in 50% glycerol) (4.2 µl) was fractionated and subjected to centrifugation (3,000 × g, one minute), to thereby remove glycerol. The thus-obtained pellet was suspended in a nuclear extraction buffer (20 mM Tris-HCl (pH 7.5), 0.3 M NaCl, 140 mM β-Me, […], 20 mM PMSF) (10 µl), and the suspension was incubated in ice for 30 minutes. Subsequently, the suspension was subjected to centrifugation (10,000 × g, 10 minutes) and supernatant was fractionated, to thereby obtain crude topoisomerase II. The thus-obtained topoisomerase II was diluted on the basis of activity.
(B) Dilution of purified topoisomerase II (Top GEN, Inc)
Topoisomerase II (Top GEN, Inc) was diluted with the aforementioned nuclear extraction buffer, so as to attain a concentration of 0.75 unit/ml.
A test sample (1 µl) and a buffer (18 µl) containing a mixture of required amounts of Milli Q, 4 × topoisomerase II buffer (250 mM Tris-HCl (pH 7.9), 600 mM KCl, 50 mM MgCl2, 0.5 mM EDTA, 2.5 mM ATP, 150 mg/ml BSA), and k DNA (312 ng/ml) were added to an Eppendorf tube, and the resultant mixture was vortexed and lightly centrifuged. Subsequently, diluted crude topoisomerase II or diluted purified topoisomerase (1 µl) was added to the mixture, and the mixture was vortexed and lightly centrifuged. (Meanwhile, instead of such topoisomerase II, Milli Q (1 µl) and 50% DMSO (1 µl) were added to a reaction system prepared as a control, which system contains neither enzyme nor xanthone derivative, and 50% DMSO (1 µl) was added to a reaction system containing no xanthone derivative.)
The Eppendorf tube containing crude topoisomerase II and the Eppendorf tube containing purified topoisomerase II were allowed to stand for 30 minutes at 30°C and 37°C, respectively. Subsequently, SDS/PK/BJ (4 µl) was added to both of the tubes in ice, and both were allowed to stand at 50°C for five minutes, vortexed, and lightly centrifuged. After being allowed to stand again at 50°C for 30 minutes, they were vortexed and lightly centrifuged.
(C) Agarose gel electrophoresis and densitometry
The above-treated mixture was subjected to agarose gel electrophoresis (-EtBr 50 V) by use of a 1 × TBE buffer for electrophoresis (89 mM Tris Base/89 mM boric acid/2 mM EDTA2Na). After electrophoresis, gel staining was performed by use of 1 × TBE ([…]). After being decolorized, the gel was irradiated with UV rays, and bands on the gel were observed. The concentration of the agarose gel was 0.8%.
The amount of reacted enzyme was quantified by transforming the depth of color of the bands on the gel into numerical values by use of a computer (Gel Plotting Macros installed in NIH Image). Data of bands of mini-circle DNA were processed by a computer for conversion into numerical values and calculation, to thereby obtain residual activity (%).

[1] = test sample concentration 100 µg/ml
[2] = test sample concentration 500 µg/ml
[3] = test sample concentration 0.5 µg/ml
[4] = test sample concentration 1 µg/ml
[5] = test sample concentration 50 µg/ml
[6] = test sample concentration 10 µg/ml

Compound	Residual activity (%) [1] [%]	Residual activity (%) [2] [%]	Residual activity (%) [3] [%]	Residual activity (%) [6] [%]	also measured
Oc1ccc(C=CC=Cc2ccc(O)cc2)cc1 [4,4-(1,3-Butadiene-1,4-diyl)bis-phenol, 4,4-(1,3-butadiene-1,4-diyl)bis-phenol]	28	0	–	–	–
Oc1ccc([C@H]2Oc3cc(O)cc4c3[C@@H]2c2cc(O)cc3c2[C@@H](c2cc(O)cc5c2[C@@H]4[C@H](c2ccc(O)cc2)O5)[C@H](c2ccc(O)cc2)O3)cc1 [α-Viniferin, α-viniferin]	–	–	41	–	Residual activity (%) [4]: 38%; Residual activity (%) [5]: 0%
miyabenol A	–	–	32	0	Residual activity (%) [4]: 13%
leachianol B	1	1	–	–	–
hopeaphenol	4	1	–	–	–
leachianol A	1	2	–	–	–
kobophenol A	–	–	68	59	Residual activity (%) [5]: 18%
Oc1ccc([C@H]2c3c(O)cc4c5c3[C@@H]([C@@H](c3ccc(O)cc3)c3c(O)cc(O)cc3[C@@H]5[C@@H](c3ccc(O)cc3)O4)[C@@H]2c2cc(O)cc(O)c2)cc1 [Davidiol A, davidiol A]	3	2	–	–	–
miyabenol C	–	–	57	0	Residual activity (%) (test sample concentration 2 µg/ml): 42%
